Columns and labels:
[1] = Tissue distribution following oral administration of 15-HETrE; format: in vivo, rats; conditions: 500 mg/kg p.o. once daily for 7 days; tissues taken 24 hours after final dose
Experimental: The objective of this study was to examine distribution of orally administered 15-HETrE. Male CRL:CD rats were obtained from Charles River Laboratories. Upon receipt, animals were allowed to acclimatize for 5 days prior to start of testing, housed under a 12 h light/dark cycle, and provided a pellet diet (RM-1) and water ad libitum. Animals were dosed with 15-HETrE or vehicle (0.5% HPMC in ASTM Type 1 water) p.o. once daily for 7 days. Animals were monitored at 0.25, 0.5, and 1 hour post dose. During the treatment period, individual body weight was measured daily as well as clinical signs of behavior and survival.
24 hours after the final p.o. dose, each animal was killed by anaesthetic overdose with an intraperitoneal injection of pentobarbitone. A blood sample was collected from the descending vena cava. Lungs, heart, liver, kidneys, spleen, colon, and an area of shaved skin were harvested from each animal, rinsed in PBS, dabbed dry, weighed, and snap-frozen by immersion in liquid nitrogen. All tissue samples were stored frozen at −80° C.

[2] = tested on: human islet microtissue; assay: Cytotoxicity pretest: chronic insulin secretion (Human Insulin ELISA) of islet microtissues; format: cell-based; conditions: 300 μM; after 7 days of treatment
Experimental: (§1) From Days 0-7, a human islet microtissue was established. On Day 7, 15-HETrE treatment commenced. From Days 9-12, the culture media was renewed and the compound (15-HETrE) was re-dosed. On Day 14, an assessment on islet cell viability was performed—tissues were lysed to measure ATP content using Promega CellTiter-Glo luminescent cell viability assay. On Day 14, an assessment on islet cell function was also performed—conditioned media from the last 48 hours of the experiment was collected to test chronic insulin secretion. And lastly, on Day 14, insulin was quantified—following dilutions in Krebs-Ringer HEPES buffer, chronic insulin secretion was quantified using STELLUX Chemi Human Insulin ELISA assay.

[3] = tested on: human islet microtissue; assay: 15-HETrE efficacy: human islet microtissue under cytokine stress; format: cell-based; conditions: 50 μM
Experimental: (§2) The aim of the following study was to determine the effects of 15(S)-HETrE activity on diabetes. This aim was accomplished by (1) identifying a cytotoxic threshold of 15(S)-HETrE in islet microtissues and (2) testing the effects of 15(S)-HETrE on human islet microtissue function under conditions of glucotoxicity and cytokine stress.
(§3) From Days 0-13, an islet microtissue model was established and glucotoxicity pre-test performed. Day 14 marked the start of glucotoxicity assay and 12.5 μM, 25 μM and 50 μM 15(S)-HETrE treatment. From Days 16-19, the culture media was renewed, and the compound (15-HETrE) was re-dosed. Day 12 marked the start of the cytokine stress assay for the 12.5 μM, 25 μM and 50 μM 15(S)-HETrE treatment. On Day, 12 an intermediate assessment of the compound effects was also performed (e.g., Day 7 incubation in glucotoxic conditions). On Day 12, a renewal of the culture media and compound treatment was performed. On Days 23 and 26, a renewal of the culture media and compound treatment was also performed. Lastly, on Day 28, an assessment of the compound effects under glucotoxicity/cytokine stress at the end of 14- and 7-day incubation was performed.

[4] = tested on: human islet microtissue; assay: 15-HETrE efficacy: human islet microtissue function under glucotoxic conditions; format: cell-based
Experimental: as §2, §3

[5] = tested on: human islet microtissue; assay: Cytotoxicity pretest: ATP content (CellTiter-Glo cell viability) in islet microtissues; format: cell-based; conditions: after 7 days of treatment
Experimental: as §1

| ATP content [3] | SMILES | tissue distribution of 15-HETrE (heart, kidney, liver, spleen, lung, plasma, skin, colon) vs control animals [1] | chronic insulin secretion [2] | fold stimulation of insulin secretion ([4]; 25 μM, day 14) | ATP levels ([4]; 50 μM) | chronic insulin secretion ([4]; day 7) | stimulated insulin secretion ([4]; day 7, 50 μM) | basal insulin secretion ([4]; day 7, 12.5, 25 and 50 μM) | chronic insulin secretion ([4]; day 14) | basal insulin secretion ([4]; day 14, 12.5, 25 and 50 μM) | ATP content ([5]; 11.1 μM) | ATP content ([5]; 300 μM) |
| --- | --- | --- | --- | --- | --- | --- | --- | --- | --- | --- | --- | --- |
| – | CCCCCC(O)/C=C/C=C\C/C=C\CCCCCCC(=O)O (stereo not drawn) [15-HETrE, 15-hydroxy-eicosa-8(Z),11(Z),13(E)-trienoic acid] | targeted all organs tested, including the skin | – | – | – | – | – | – | – | – | – | – |
| significant decrease | CCCCC[C@H](O)/C=C/C=C\C/C=C\CCCCCCC(=O)O [15(S)-HETrE] | – | significant decrease | improved | significantly decreased | reduced | significant decrease | dose-dependent decrease | reduced | dose-dependent decrease | significant increase | significant decrease |

— patent US20220133669A1, “PHARMACEUTICAL COMPOSITIONS COMPRISING 15-HETRE AND METHODS OF USE THEREOF” (DS Biopharma Limited, priority 2020, published 2022)
